Measured values as given in PMC5378356, “Differential inhibition of activity, activation and gene expression of MMP-9 in THP-1 cells by azithromycin and minocycline versus bortezomib: A comparative study” (PLoS ONE, 2017).

Molecular target: T1, matrix metalloproteinase-9 (MMP-9, gelatinase B) (Homo sapiens, UniProt P14780)
T1 construct: gene MMP9
Assay: fluorogenic DQ-gelatin degradation assay with active MMP-9; also gelatin zymography with compound in the incubation buffer
Format: biochemical

T1 sequence (P14780 107-707): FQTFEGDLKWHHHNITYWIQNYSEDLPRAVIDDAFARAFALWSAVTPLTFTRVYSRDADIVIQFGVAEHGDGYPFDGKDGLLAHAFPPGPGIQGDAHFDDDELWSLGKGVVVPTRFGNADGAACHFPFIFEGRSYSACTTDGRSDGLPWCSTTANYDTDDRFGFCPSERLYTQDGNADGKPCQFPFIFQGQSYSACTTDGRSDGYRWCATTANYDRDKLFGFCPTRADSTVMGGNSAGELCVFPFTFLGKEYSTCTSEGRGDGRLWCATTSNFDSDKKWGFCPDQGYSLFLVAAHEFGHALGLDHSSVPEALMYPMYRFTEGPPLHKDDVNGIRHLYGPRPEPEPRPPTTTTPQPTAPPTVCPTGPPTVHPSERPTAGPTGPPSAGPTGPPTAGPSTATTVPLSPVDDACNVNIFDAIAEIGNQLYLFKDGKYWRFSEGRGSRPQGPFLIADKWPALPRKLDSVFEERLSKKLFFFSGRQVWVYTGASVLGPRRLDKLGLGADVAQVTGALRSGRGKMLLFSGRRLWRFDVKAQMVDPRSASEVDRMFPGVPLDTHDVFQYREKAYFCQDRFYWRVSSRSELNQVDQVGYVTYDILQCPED

- IC50: 272 µM
Structure (SMILES): CN(C)c1ccc(O)c2c1C[C@H]1C[C@H]3[C@H](N(C)C)C(O)=C(C(N)=O)C(=O)[C@@]3(O)C(O)=C1C2=O [minocycline]
